Patent US20230099344A1, “COMPOUNDS AND METHODS FOR THE TARGETED DEGRADATION OF IRAK-4” (Arvinas Operations, Inc., priority 2021, published 2023)

Tests used:
Type in all cases: cell-based
IRAK-4 [1] = biological target: T1, IRAK-4 (Homo sapiens, UniProt Q9NWZ3); test: IRAK-4 ELISA, OCI-Ly10 degradation; set-up: endogenous in cells; settings: treated overnight; for Dmax: OCI-Ly10, OCI-Ly10 cells
T1 sequence (Q9NWZ3 1-460): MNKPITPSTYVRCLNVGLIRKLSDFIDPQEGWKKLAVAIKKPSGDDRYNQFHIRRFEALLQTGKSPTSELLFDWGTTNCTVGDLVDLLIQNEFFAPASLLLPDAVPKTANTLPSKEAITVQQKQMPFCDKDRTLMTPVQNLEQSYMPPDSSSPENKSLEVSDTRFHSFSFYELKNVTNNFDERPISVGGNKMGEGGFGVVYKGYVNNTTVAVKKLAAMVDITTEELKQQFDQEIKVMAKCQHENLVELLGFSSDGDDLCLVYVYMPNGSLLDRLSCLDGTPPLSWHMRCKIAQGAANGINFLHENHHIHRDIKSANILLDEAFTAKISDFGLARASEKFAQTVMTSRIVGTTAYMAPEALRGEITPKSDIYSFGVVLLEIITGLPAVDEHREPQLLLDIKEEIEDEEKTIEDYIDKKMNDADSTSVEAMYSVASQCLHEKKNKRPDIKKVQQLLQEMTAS
Protocol: Reagents: Human IRAK-4 Matched Antibody Pair Kit (Abcam ab218182) and ELISA Accessory Pack (Abcam ab210905).
Cell Treatment and Lysis:
1. OCI-Ly10: 200,000 cells are seeded at 1×10^6/ml in 96-well U-bottom plates 200 ul per well, treated with compound the same day. Incubate overnight. 2. PBMC: 800,000 cells are seeded at 2×10^6/ml in 96-well U-bottom deep-well plates, 400 ul per well, treated with compound the same day. Incubate overnight.
Cell lysate is collected and analyzed by ELISA for IRAK-4 levels.

IRAK-4 [2] = biological target: T1, IRAK-4; test: IRAK-4 ELISA, PBMC degradation; set-up: endogenous in cells; host or cells: PBMC; settings: treated overnight
In short: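 Overnight compound treatment, started on the day of plating, of OCI-Ly10 (1×10^6/ml) and PBMC (2×10^6/ml) cultures. Lysates are collected and IRAK-4 content is read by sandwich ELISA.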

IL6 [3] = test: R848 stimulated IL6 inhibition assay in PBMC; settings: PBMC, human PBMCs, R848 stimulation, compound overnight, IL6 by MSD after 24 hrs; for Dmax: Homo sapiens, 24 h, read-out: R848 stim IL6 inhibition Dmax; for IC50: read-out: R848 stim IL6 inhibition IC50
In short: (§1)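 Read-out: MSD quantification of IL6 or IL8 in media collected 24 hrs after stimulation. Human PBMCs (2.0×10^6 cells/mL) received compound overnight before stimulant dosing at an EC50 concentration determined per donor.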

IL6 [4] = test: LPS stimulated IL6 inhibition assay in PBMC; settings: Homo sapiens, PBMC, 24 h, human PBMCs, LPS stimulation, compound overnight, IL6 by MSD after 24 hrs; for Dmax: read-out: LPS Stim IL6 inhibition Dmax; for IC50: read-out: LPS stim IL6 inhibition IC50
In short: as §1

SMILES | Dmax (IRAK-4 [1]) | DC50 (IRAK-4 [1]; OCI-Ly10 cells) | other results
O=C1CCC(N2C(=O)c3ccc(N4CC(CN5CCC(N6Cc7cc(NC(=O)c8cnn9cccnc89)c(N8CCOCC8)nc7C6=O)CC5)C4)cc3C2=O)C(=O)N1 (stereo not drawn) [Example 406] | < 70% | 50 to 100 nM | 
COc1cc2nn(C3CCN(CC4CN(c5ccc6c(c5)C(=O)N(C5CCC(=O)NC5=O)C6=O)C4)C3)cc2cc1NC(=O)c1cnn2cccnc12 (stereo not drawn) [Example 209] |  | ≥ 100 nM | 
O=C1CCC(N2Cc3cc(C#CCN4CCC(n5cc6cc(NC(=O)c7cnn8cccnc78)c(OCC7CC7)cc6n5)CC4)ccc3C2=O)C(=O)N1 (stereo not drawn) [Example 179] | < 70% | ≥ 100 nM | 
CC(C)Oc1cc2c(cc1NC(=O)c1cnn3cccnc13)CN(C1CCN(C3CN(c4cc5c(cc4F)C(=O)N(C4CCC(=O)NC4=O)C5=O)C3)CC1)C2=O (stereo not drawn) [Example 63] | ≥ 90% | 10 to 50 nM | 
O=C1CCC(N2C(=O)c3ccc(OCCOCCN4CCC(n5cc6cc(NC(=O)c7cnn8cccnc78)c(OCC7CC7)cc6n5)CC4)cc3C2=O)C(=O)N1 (stereo not drawn) [Example 121] | ≥ 90% | 10 to 50 nM | 
CC(C)Oc1cc2c(cc1NC(=O)c1cnn3cccnc13)CN(C1CCN(CCc3ccc4c(c3)CN(C3CCC(=O)NC3=O)C4=O)CC1)C2=O (stereo not drawn) [Example 8] | ≥ 90% | < 10 nM | 
COc1cc2nn(C3CN(CC4CCN(c5ccc6c(c5)C(=O)N(C5CCC(=O)NC5=O)C6=O)CC4)C3)cc2cc1NC(=O)c1cnn2cccnc12 (stereo not drawn) [Example 146] |  | ≥ 100 nM | 
O=C1CCC(N2Cc3cc(N4CC(CN5CCC(N6Cc7cc(NC(=O)c8cnn9cccnc89)c(N8CCC(N9CCC9)CC8)cc7C6=O)CC5)C4)ccc3C2=O)C(=O)N1 (stereo not drawn) [Example 35] | ≥ 90% | 10 to 50 nM | 
O=C1CCC(NC(=O)c2ccc(N3CC(CN4CCC(n5cc6cc(NC(=O)c7cnn8cc(Cl)cnc78)c(OCC7CC7)cc6n5)CC4)C3)cc2F)C(=O)N1 (stereo not drawn) [Example 299] | ≥ 90% | 10 to 50 nM | 
O=C1CCC(N2C(=O)c3ccc(CN4CCC(n5cc6cc(NC(=O)c7cnn8cccnc78)c(OCC7CC7)cc6n5)CC4)cc3C2=O)C(=O)N1 (stereo not drawn) [Example 123] |  | ≥ 100 nM | 
O=C1CCC(N2C(=O)c3ccc(CCN4CCC(n5cc6cc(NC(=O)c7cnn8cccnc78)c(OCC7CC7)cc6n5)CC4)cc3C2=O)C(=O)N1 (stereo not drawn) [Example 127] | ≥ 90% | 10 to 50 nM | 
COc1cc2nn([C@H]3CCN(CC4CCN(c5ccc6c(c5)C(=O)N(C5CCC(=O)NC5=O)C6=O)CC4)C[C@@H]3F)cc2cc1NC(=O)c1cnn2cccnc12 (stereo partly drawn) [Example 208] | ≥ 90% | 10 to 50 nM | 
COc1cc2nn(C3CCN(CC4CCN(c5ccc6c(c5)C(=O)N(C5CCC(=O)NC5=O)C6=O)CC4)CC3)cc2cc1NC(=O)c1cnn2cc(C)cnc12 (stereo not drawn) [Example 140] | 80 to 90% | 10 to 50 nM | 
COc1cc2nn([C@H]3CC[C@H](N(C)CC#Cc4ccc5c(c4)C(=O)N(C4CCC(=O)NC4=O)C5=O)CC3)cc2cc1NC(=O)c1cnn2cccnc12 (stereo partly drawn) [Example 340] |  | 10 to 50 nM | OCI-LY10 Dmax (IRAK-4 [1]; OCI-Ly10 cells): A (A represents a Dmax value ≥90)
O=C1CCC(N2C(=O)c3ccc(OCCOCCN4CCC(n5cc6cc(NC(=O)c7cnn8cc(Cl)cnc78)c(OCC7CC7)cc6n5)CC4)cc3C2=O)C(=O)N1 (stereo not drawn) [Example 120] | ≥ 90% | 10 to 50 nM | 
O=C1CCC(NC(=O)c2ccc(N3CCC(CN4CCC(n5cc6cc(NC(=O)c7cnn8cc(Cl)cnc78)c(OCC7CC7)cc6n5)CC4)CC3)cc2F)C(=O)N1 (stereo not drawn) [Example 289] | ≥ 90% | 10 to 50 nM | 
O=C1CCC(N2C(=O)c3ccc(N4CCC([C@H](F)Cn5cc6cc(NC(=O)c7cnn8cccnc78)c(OCC7CC7)cc6n5)CC4)cc3C2=O)C(=O)N1 (stereo partly drawn) [Example 171] | 70 to 80% | 50 to 100 nM | 
O=C1CCC(N2C(=O)c3ccc(CCN4CCC(N5Cc6cc(NC(=O)c7cnn8cccnc78)c(N7CCOCC7)nc6C5=O)CC4)cc3C2=O)C(=O)N1 (stereo not drawn) [Example 405] | 70 to 80% | ≥ 100 nM | 
COc1cc2nn(C3CCN(CC4CCN(c5ccc(C(=O)NC6CCC(=O)NC6=O)c(F)c5)CC4)CC3)cc2cc1NC(=O)c1cnn2cccnc12 (stereo not drawn) [Example 295] | ≥ 90% | 10 to 50 nM | 
COc1cc2nn(C3CCN(CC4CN(c5ccc6c(c5)n(C)c(=O)n6C5CCC(=O)NC5=O)C4)CC3)cc2cc1NC(=O)c1cnn2cccnc12 (stereo not drawn) [Example 380] |  | ≥ 100 nM | 
CC(C)(O)c1cc2nn(C3CCN(CC4CN(c5ccc6c(c5)C(=O)N(C5CCC(=O)NC5=O)C6=O)C4)CC3)cc2cc1NC(=O)c1cnn2cc(Cl)cnc12 (stereo not drawn) [Example 391, 6-chloro-N-(2-(1-((1-(2-(2,6-dioxopiperidin-3-yl)-1,3-dioxoisoindolin-5-yl)azetidin-3-yl)methyl)piperidin-4-yl)-6-(2-hydroxypropan-2-yl)-2H-indazol-5-yl)pyrazolo[1,5-a]pyrimidine-3-carboxamide] | 80 to 90% | 10 to 50 nM | 
O=C1CCC(N2C(=O)c3ccc(N4CC(CN5CCC(n6cc7cc(CC(=O)c8cnn9cc(Cl)cnc89)c(OCC8CC8)cc7n6)CC5)C4)cc3C2=O)C(=O)N1 (stereo not drawn) [Example 164] | ≥ 90% | 10 to 50 nM | 
O=C1CCC(N2C(=O)c3ccc(N4CC(COC[C@H](F)Cn5cc6cc(NC(=O)c7cnn8cccnc78)c(OCC7CC7)cc6n5)C4)cc3C2=O)C(=O)N1 (stereo partly drawn) [Example 172] | 80 to 90% | ≥ 100 nM | 
Cc1cnc2c(C(=O)Nc3cc4cn(C5CCN(CC6CCN(c7ccc8c(c7)C(=O)N(C7CCC(=O)NC7=O)C8=O)CC6)CC5)nc4cc3OCC3CC3)cnn2c1 (stereo not drawn) [Example 130] | ≥ 90% | 50 to 100 nM | 
O=C1CCC(N2Cc3c(ccc(N4CC(F)(CN5CCC(n6cc7cc(NC(=O)c8cnn9cccnc89)c(OCC(F)F)cc7n6)CC5)C4)c3F)C2=O)C(=O)N1 (stereo not drawn) [Example 251] |  |  | DC50 (IRAK-4 [2]): 1 to 5 nM; Dmax (IRAK-4 [2]): 80 to 90%; PBMC DC90 (IRAK-4 [2]): A (A represents a DC90 value <10.0 nM); Dmax (IL6 [3]): 80 to 90%; IC50 (IL6 [3]): 10 to 50 nM; Dmax (IL6 [4]): < 70%; IC50 (IL6 [4]): 50 to 100 nM
O=C1CCC(N2Cc3c(ccc(N4CCC(CN5CCC(N6Cc7cc(NC(=O)c8cnn9cccnc89)c(N8CCN(CC(F)F)CC8)cc7C6=O)CC5)CC4)c3F)C2=O)C(=O)N1 (stereo not drawn) [Example 51] |  |  | DC50 (IRAK-4 [2]): < 1 nM; Dmax (IRAK-4 [2]): ≥ 90%; PBMC DC90 (IRAK-4 [2]): A (A represents a DC90 value <10.0 nM); Dmax (IL6 [3]): ≥ 90%; IC50 (IL6 [3]): 10 to 50 nM; Dmax (IL6 [4]): < 70%; IC50 (IL6 [4]): 50 to 100 nM
O=C1CCC(N2C(=O)c3ccc(N4CC(F)(CN5CCC(n6cc7cc(NC(=O)c8cnn9cccnc89)c(N8CCOCC8)cc7n6)CC5)C4)cc3C2=O)C(=O)N1 (stereo not drawn) [Example 218] |  |  | DC50 (IRAK-4 [2]): 5 to 10 nM; Dmax (IRAK-4 [2]): 80 to 90%; PBMC DC90 (IRAK-4 [2]): D (D represents a DC90 value ≥50 nM); Dmax (IL6 [3]): ≥ 90%; IC50 (IL6 [3]): < 10 nM; Dmax (IL6 [4]): 70 to 80%; IC50 (IL6 [4]): 10 to 50 nM
C=C(CN1CCC(N2Cc3cc(NC(=O)c4cnn5cccnc45)c(OC(C)C)cc3C2=O)CC1)C1CCN(c2ccc3c(c2)C(=O)N(C2CCC(=O)NC2=O)C3=O)CC1 (stereo not drawn) [Example 110] |  |  | DC50 (IRAK-4 [2]): 1 to 5 nM; Dmax (IRAK-4 [2]): ≥ 90%; PBMC DC90 (IRAK-4 [2]): B (B represents a DC90 value ≥10.0 nM and <25.0 nM); Dmax (IL6 [3]): ≥ 90%; IC50 (IL6 [3]): 10 to 50 nM; Dmax (IL6 [4]): 80 to 90%; IC50 (IL6 [4]): 10 to 50 nM
